The assay has as its system parasites (ring stage parasites, parasite growth). The assay is described as follows: Parasite LDH growth assay (Parasite Assay), antiparasite potency. It is filed as cell-based. The settings on record: 72 hours growth, LDH readout. The protocol:
Assessing Antiparasite Potency in a Parasite LDH Growth Assay (Parasite Assay) The parasite stock was maintained at […] in RPMI-Hepes media buffered with sodium bicarbonate and supplemented with […]. […] On the day of assay set up, a blood smear of the parasite culture was Giemsa stained and counted. The parasitemia was adjusted to 0.7% rings and the haematocrit was diluted to 2% in RPMI-Hepes media buffered with sodium bicarbonate and supplemented with 500 heat inactivated human serum and 0.5% albumax. 30 ul of diluted parasites are then added into 10 ul of media+compound in pre-prepared Greiner TC assay plates. Parasite assay plates were placed in gassed humidified boxes in single layer and allowed to incubate at 37° C. for 72 hours. After 72 hours growth, assay plates are sealed with parafilm and frozen flat, in single file at −80° C. overnight. On the following day, assay plates are allowed to thaw at room temperature for 4 hours to which an LDH assay is performed to measure parasite growth.

The results in this text go back to patent US12338219B2, “Antimalarial agents” (Merck Sharp & Dohme LLC, priority 2019, dated 2025).

Each structure is given as a SMILES string.

A word on the EC50: it is the concentration that produces a half-maximal response. In turn, `COCC1(C)CC(NC(=O)[C@@H]2C[C@H]2[C@@H](c2cccnc2)N2C(=N)NC(C)(C)CC2=O)c2ccccc2O1` (single isomer, unassigned) [Example 108C] displayed a 50% effective concentration (EC50) (Table 3) of 6 nM.
As for `COCC1(C)CC(NC(=O)[C@@H]2C[C@H]2[C@@H](c2cccnc2)N2C(=N)NC(C)(C)CC2=O)c2ccccc2O1` (single isomer, unassigned) [Example 108D], the EC50 (Table 3) came out at 8.5 nM.
In the case of `CC1(C)CC(=O)N([C@H](c2cccnc2)[C@@H]2C[C@H]2C(=O)NC2CC(C)(C)Oc3ccc(C(F)(F)F)cc32)C(=N)N1` (single isomer, unassigned) [Example 109A], the EC50 (Table 3) came out at 2.3 nM.
In turn, `CC1(C)CC(=O)N([C@H](c2cccnc2)[C@@H]2C[C@H]2C(=O)NC2CC(C)(C)Oc3ccc(C(F)(F)F)cc32)C(=N)N1` (single isomer, unassigned) [Example 109B] yielded an EC50 (Table 3) of 1 nM.
Same read-out and setting: to `CC[C@]1(C)CC(=O)N([C@H](CCOC)[C@@H]2C[C@H]2C(=O)NC2CC(C)(C)Oc3ccc(F)cc32)C(=N)N1` (single isomer, unassigned) [Example 130A] belongs 0.9 nM.
Consider `CC[C@]1(C)CC(=O)N([C@H](CCOC)[C@@H]2C[C@H]2C(=O)NC2CC(C)(C)Oc3ccc(F)cc32)C(=N)N1` (single isomer, unassigned) [Example 130B], for which the EC50 (Table 3) was determined as 2.4 nM.
Regarding `CCC1C[C@H](NC(=O)[C@@H]2C[C@H]2CN2C(=N)NC(C)(C)CC2=O)c2ccccc2O1` (single isomer, unassigned) [Example 133A], for the setting “Table 3”, the EC50 amounted to 210 nM.
For the setting “Table 3”, `CCC1C[C@H](NC(=O)[C@@H]2C[C@H]2CN2C(=N)NC(C)(C)CC2=O)c2ccccc2O1` (single isomer, unassigned) [Example 133B] came in with an EC50 of 100 nM.
The molecule `CCC1(CC)CC(=O)N(C(CC(C)OC)[C@@H]2C[C@H]2C(=O)N[C@H]2CC(C)(C)Oc3ccccc32)C(=N)N1` (single isomer, unassigned) [Example 142A] displayed a concentration giving a half-maximal response (EC50) (Table 4 (unit inferred)) of 1.9 nM.
The molecule `CCC1(CC)CC(=O)N(C(CC(C)OC)[C@@H]2C[C@H]2C(=O)N[C@H]2CC(C)(C)Oc3ccccc32)C(=N)N1` (single isomer, unassigned) [Example 142B] yielded an EC50 (Table 4 (unit inferred)) of 0.7 nM.
For the molecule `CCC1(CC)CC(=O)N(C(CC(C)OC)[C@@H]2C[C@H]2C(=O)N[C@H]2CC(C)(C)Oc3ccccc32)C(=N)N1` (single isomer, unassigned) [Example 142C], it took 205 nM to reach a half-maximal effect (Table 4 (unit inferred)) (EC50).
On the same count and under the same terms, under `CCC1(CC)CC(=O)N(C(CC(C)OC)[C@@H]2C[C@H]2C(=O)N[C@H]2CC(C)(C)Oc3ccccc32)C(=N)N1` (single isomer, unassigned) [Example 142D] stands 115 nM; under `CCC1(CC)CC(=O)N(C(CC(C)OC)[C@@H]2C[C@H]2C(=O)N[C@@H]2CC(C)(C)Oc3ccccc32)C(=N)N1` (single isomer, unassigned) [Example 143A], 4.6 nM; under `CCC1(CC)CC(=O)N(C(CC(C)OC)[C@@H]2C[C@H]2C(=O)N[C@@H]2CC(C)(C)Oc3ccccc32)C(=N)N1` (single isomer, unassigned) [Example 143B], 2.4 nM.
The same measure, in the same setting: to `CCC1(CC)CC(=O)N(C(CC(C)OC)[C@@H]2C[C@H]2C(=O)N[C@@H]2CC(C)(C)Oc3ccccc32)C(=N)N1` (single isomer, unassigned) [Example 143C] belongs 57.9 nM; to `CCC1(CC)CC(=O)N([C@H](CCOC)[C@@H]2C[C@H]2C(=O)NC2CC(C)(C)Oc3cc(Cl)ccc32)C(=N)N1` (single isomer, unassigned) [Example 147A], 2.8 nM; to `CCC1(CC)CC(=O)N([C@H](CCOC)[C@@H]2C[C@H]2C(=O)NC2CC(C)(C)Oc3cc(Cl)ccc32)C(=N)N1` (single isomer, unassigned) [Example 147B], 8.2 nM.
Turning to `CCC1(CC)CC(=O)N([C@H](CCOC)[C@@H]2C[C@H]2C(=O)N[C@H]2CC(C)(C)Oc3ccccc32)C(=N)N1` [Example 1A], for the setting “72 h, Table 3”, the response was half-maximal at 1 nM (EC50).
For the molecule `CCC1(CC)CC(=O)N([C@H](CCOC)[C@@H]2C[C@H]2C(=O)N[C@@H]2CC(C)(C)Oc3ccccc32)C(=N)N1` [Example 1B], where the note is “72 h, Table 3”, the EC50 turned out to be 250 nM.
In turn, `CCC1(CC)CC(=O)N([C@H](c2cccnc2)[C@@H]2C[C@H]2C(=O)N[C@H]2CC(C)(C)Oc3ccccc32)C(=N)N1` [Example 2, (1R,2R)-2-((S)-(4,4-diethyl-2-imino-6-oxotetrahydropyrimidin-1(2H)-yl)(pyridin-3-yl)methyl)-N—((S)-2,2-dimethylchroman-4-yl)cyclopropanecarboxamide] yielded an EC50 (72 h, Table 3) of 0.9 nM.
The molecule `CCC1(CC)CC(=O)N(C[C@H]2C[C@@H]2C(=O)N[C@@H](C)c2ccccc2)C(=N)N1` [Example 3A] had an EC50 (72 h, Table 3) of 234 nM.
Regarding `CCC1(CC)CC(=O)N(C[C@@H]2C[C@H]2C(=O)N[C@@H](C)c2ccccc2)C(=N)N1` [Example 3B], under “72 h, Table 3”, the EC50 was found to be 151 nM.
As to `CCC1(CC)CC(=O)N(C[C@H]2C[C@@H]2C(=O)N[C@H]2CCOc3ccccc32)C(=N)N1` [Example 4A], under “72 h, Table 3”, the EC50 amounted to 94 nM.
For `CCC1(CC)CC(=O)N(C[C@@H]2C[C@H]2C(=O)N[C@H]2CCOc3ccccc32)C(=N)N1` [Example 4B], under “72 h, Table 3”, a half-maximal effect (EC50) was put at 26 nM.
Molecule `CCC1(CC)CC(=O)N(CC2CC2C(=O)N[C@H]2CCOc3ccccc32)C(=N)N1` (some centres unmarked) [Example 4C] came in with an EC50 (72 h, Table 3) of 85 nM.
Where the note is “Table 3”, `CCC1(CC)CC(=O)N(CC2CC2C(=O)N[C@H]2CCOc3ccccc32)C(=N)N1` (some centres unmarked) [Example 4D] showed an EC50 of 91 nM.
On to `CCC1(CC)CC(=O)N(C[C@@H]2C[C@H]2C(=O)N[C@H]2CC(C)(C)Oc3ccccc32)C(=N)N1` [Example 5], for which the EC50 (72 h, Table 3) amounted to 49 nM.
For the setting “72 h, Table 3”, `CCC1(CC)CC(=O)N(C[C@H]2C[C@@H]2C(=O)N[C@@H]2c3ccccc3C[C@H]2O)C(=N)N1` [Example 6A] gave an EC50 of 188 nM.
The same measure, in the same setting: to `CCC1(CC)CC(=O)N(C[C@@H]2C[C@H]2C(=O)N[C@@H]2c3ccccc3C[C@H]2O)C(=N)N1` [Example 6B] belongs 269 nM; to `CCC1(CC)CC(=O)N(C[C@@H]2C[C@H]2C(=O)N[C@H]2CC(C)(C)Oc3ccc(F)cc32)C(=N)N1` [Example 7A], 135 nM.
For the setting “72 h, Table 3”, `CCC1(CC)CC(=O)N(C[C@@H]2C[C@H]2C(=O)N[C@@H]2CC(C)(C)Oc3ccc(F)cc32)C(=N)N1` [Example 7B] came in with an EC50 of 29 nM.
Molecule `CCC1(CC)CC(=O)N(C[C@@H]2C[C@H]2C(=O)N[C@H]2C[C@H](C(F)(F)F)Oc3ccccc32)C(=N)N1` [Example 8A] yielded an EC50 (72 h, Table 3) of 37 nM.
Under “72 h, Table 3”, `CCC1(CC)CC(=O)N(C[C@@H]2C[C@H]2C(=O)N[C@@H]2C[C@@H](C(F)(F)F)Oc3ccccc32)C(=N)N1` [Example 8B] gave an EC50 of 5.3 nM.
Where the note is “72 h, Table 3”, `CCC1(CC)CC(=O)N([C@H](c2cccnc2)[C@@H]2C[C@H]2C(=O)N[C@H]2CCOc3ccccc32)C(=N)N1` [Example 9] yielded an EC50 of 6.9 nM.
For the molecule `CCC1(CC)CC(=O)N([C@H](c2cccnc2)[C@@H]2C[C@H]2C(=O)N[C@@H]2c3ccccc3C[C@H]2O)C(=N)N1` [Example 10], the EC50 (72 h, Table 3) is 27 nM. This EC50 lies about 3.9-fold higher than the previous one.
The molecule `CCC1(CC)CC(=O)N([C@H](c2cccnc2)[C@@H]2C[C@H]2C(=O)N[C@H]2c3ccccc3OC(C)(C)[C@@H]2O)C(=N)N1` [Example 11A] showed an EC50 (72 h, Table 3) of 4.1 nM.
In turn, `CCC1(CC)CC(=O)N([C@H](c2cccnc2)[C@@H]2C[C@H]2C(=O)N[C@@H]2c3ccccc3OC(C)(C)[C@H]2O)C(=N)N1` [Example 11B] gave an EC50 (72 h, Table 3) of 24 nM. This EC50 is about 5.9-fold higher than that of the molecule before.
Turning to `CCC1(CC)CC(=O)N([C@H](c2cccnc2)[C@@H]2C[C@H]2C(=O)N[C@H]2C[C@H](C(F)(F)F)Oc3ccccc32)C(=N)N1` [Example 12], for the setting “72 h, Table 3”, the EC50 worked out at 0.9 nM.
Still for that read-out and setting: under `CCC1(CC)CC(=O)N([C@H](CCOC)[C@@H]2C[C@H]2C(=O)N[C@@H]2c3ccccc3C[C@H]2O)C(=N)N1` [Example 13] stands 24 nM; under `CCC1(CC)CC(=O)N([C@H](CCOC)[C@@H]2C[C@H]2C(=O)N[C@H]2C[C@H](C(F)(F)F)Oc3ccccc32)C(=N)N1` [Example 14], 0.9 nM.
For the molecule `CCC1(CC)CC(=O)N(CC2C(C(=O)N[C@H]3CCOc4ccccc43)C2(F)F)C(=N)N1` (some centres unmarked) [Example 15A], the EC50 (72 h, Table 3) came out at 240 nM.
For the setting “Table 3”, `CCC1(CC)CC(=O)N(CC2C(C(=O)N[C@H]3CCOc4ccccc43)C2(F)F)C(=N)N1` (some centres unmarked) [Example 15B] gave an EC50 of 230 nM. This lies in the sub-micromolar range.
`CCC1(CC)CC(=O)N(C[C@H]2C(C(=O)N[C@@H]3c4ccccc4OC(C)(C)[C@H]3O)C2(F)F)C(=N)N1` (some centres unmarked) [Example 18A] gave an EC50 (72 h, Table 3) of 39 nM.
Consider `CCC1(CC)CC(=O)N(C[C@@H]2[C@@H](C(=O)N[C@@H]3c4ccccc4OC(C)(C)[C@H]3O)C2(F)F)C(=N)N1` [Example 18B], for which, where the note is “72 h, Table 3”, the EC50 was 180 nM.
Molecule `CCC1(CC)CC(=O)N([C@H](CCOC)[C@@H]2C[C@H]2C(=O)N[C@H]2c3ccccc3OCC2(C)C)C(=N)N1` [Example 19A] had an EC50 (72 h, Table 3) of 28 nM.
On to `CCC1(CC)CC(=O)N([C@H](CCOC)[C@@H]2C[C@H]2C(=O)N[C@@H]2c3ccccc3OCC2(C)C)C(=N)N1` [Example 19B], for which, where the note is “72 h, Table 3”, the midpoint of the response, the EC50, lay at 4.2 nM.
The molecule `COCC[C@H]([C@@H]1C[C@H]1C(=O)N[C@H]1CC(C)(C)Oc2ccccc21)N1C(=N)N[C@](C)(C(C)C)CC1=O` [Example 20] gave an EC50 (72 h, Table 3) of 5.3 nM.
Where the note is “Table 3”, `COCC[C@H]([C@@H]1C[C@H]1C(=O)N[C@H]1C[C@H](C(F)(F)F)Oc2ccccc21)N1C(=N)N[C@](C)(C(C)C)CC1=O` [Example 21A] came in with an EC50 of 260 nM.
Under “Table 3”, `COCC[C@H]([C@@H]1C[C@H]1C(=O)N[C@H]1C[C@H](C(F)(F)F)Oc2ccccc21)N1C(=N)N[C@](C)(C(C)C)CC1=O` [Example 21B] showed an EC50 of 1 nM.
For the molecule `COCC[C@H]([C@@H]1C[C@H]1C(=O)N[C@H]1CCOc2ccccc21)N1C(=N)N[C@](C)(C(C)C)CC1=O` [Example 22], the midpoint of the response (72 h, Table 3), the EC50, lay at 44 nM.
